Series [1] has as its system orthotopically-transplanted CARM1-expressing tumors. The series can be described thus: Intrabursal orthotopic xenograft model, CARM1-expressing A1847 cells. It counts as in vivo, NSG mice. Here is the method: The protocols were approved by the Institutional Animal Care and Use Committee (IACUC). For in vivo experiments, the sample size of 5 mice per group was determined based on the data shown from in vitro experiments. Intrabursal orthotopic xenograft was performed as described in Bitler, et al. Nature Medicine (2015) 21:231-8 and Bitler et al. Cancer Research (2011) 71:6184-94. Briefly, 1×10^6 A1847 parental or A1847 CARM1 knockout cells were unilaterally injected into the ovarian bursa of 6-8-week old female immunocompromised NSG mice (n=5 per group). One week after injection the mice were randomized into two groups and treated with vehicle control (20% captisol) or GSK126 (50 mg/kg daily) for three weeks. At the end of the experiments, tumors were surgically dissected and tumor burden was calculated based on tumor weight. For survival experiments, after stopping the treatment, the mice were followed for mortality or when the tumor burden reached 10% of body weight as determined by The Wistar Institute IACUC guideline.
EZH2 inhibitors, such as GSK126, are used safely in clinical trials for hematopoietic malignancies (Ribrag et al. Eur J Cancer (2014) 50:197). To determine the effects of EZH2 inhibition in vivo on the growth of CARM1-expressing ovarian tumors, two xenograft models were utilized. […]

Series [2] has as its system NHEJ genes. As to the kind of experiment: Expression of NHEJ genes. Type of series: cell-based. Conditions: CARM1 expressing cells.
For series [3] the following is noted: clinical trials for hematopoietic malignancies; cited from earlier work.
The subject of series [4] is tumors formed by CARM1 knockout cells. As to the kind of experiment: Immunohistochemistry and qRT-PCR of dissected CARM1 knockout tumors. It counts as in vivo, mice. Here is the method: FIGS. 82 to 84 illustrate immunohistochemical analysis for serial sections of tumors dissected from mice injected with CARM1 knockout A1847 cells. Serial sections of tumors dissected from the indicated treatment groups described in FIGS. 73 to 75 were subjected to immunohistochemical staining for H3K27Me3, EZH2, cleaved caspase 3, and Ki67 (FIG. 82). Scale bar=50 μm. Histological score (H-score) of the indicated proteins was calculated for 3 separate fields from 5 tumors from 5 individual mice from each of the indicated groups (FIG. 83). Expression of the indicated EZH2/BAF155 target genes was determined by qRT-PCR in the tumors dissected from the indicated treatment groups (FIG. 84).
(§1) The observed tumor growth suppression in vivo was correlated with the molecular pathways underlying the CARM1-dependent effects of EZH2 inhibition. To do so, immunohistochemical (IHC) analysis was performed for markers of cell proliferation (Ki67), apoptosis (cleaved caspase 3), H3K27Me3 and EZH2. […] Finally, the observed decrease in cell proliferation and increase in apoptosis correlated with the upregulation of the identified CARM1-regulated EZH2/BAF155 target genes such as DAB2, DLC1 and NOXA by the EZH2 inhibitor GSK126 in vivo (FIG. 81).
(In general: Real-time PCR tracks product formation cycle by cycle.)

Series [5] relates to BAF155Me. As to the kind of experiment: Immunoblot for BAF155Me levels. Type of series: cell-based, human. Conditions: 10 μM GSK126, 7 days. Here is the method: FIG. 53 illustrates that the indicated CARM1-high cells were infected with the indicated shCARM1 or controls. Expression of CARM1 and BAF155Me levels and loading control (p-actin) was determined by immunoblot. FIG. 54 illustrates that the indicated cells were treated with 10 μM GSK126 or vehicle control for 7 days. Expression of BAF155 and a loading control (0-actin) was determined by immunoblot.

Series [6] relates to CARM1-expressing tumors. The series can be described thus: Immunohistochemistry and qRT-PCR of dissected CARM1-expressing tumors. It counts as in vivo, mice. On the procedure:
FIG. 79 illustrates immunohistochemical analysis for serial sections of tumors dissected from the indicated treatment groups where the tumor sections were stained for H3K27Me3, EZH2, cleaved caspase 3, and Ki67. Scale bar=50 μm.
FIG. 80 illustrates histological scoring (H-score) of the indicated proteins that was calculated for 3 separate fields from 5 tumors from 5 individual mice from each of the indicated groups.
FIG. 81 illustrates the expression of the indicated EZH2/BAF155 target genes that was determined by qRT-PCR in the tumors dissected from the indicated treatment groups.
as §1

Series [7] has as its target T1, EZH2 (Homo sapiens, UniProt Q15910).
T1 construct: endogenous in cells; host or cells: A1847 cells (CARM1-high epithelial ovarian cancer line)
The series can be described thus: Immunoblot of A1847 cells treated with GSK126 (H3K27Me3 as readout of EZH2 activity). It counts as cell-based. Further details: inhibition of the enzymatic activity of EZH2 as indicated by the decrease in H3K27Me3 levels: dose or concentration left out as unconfirmed. To be noted: 72 hours. Here is the method:
FIG. 32 illustrates that the EZH2 inhibitor GSK126 decreases H3K27Me3 levels in a dose-dependent manner. A1847 cells were treated with the indicated concentrations of GSK126 for 72 hours and examined for expression of the indicated proteins by immunoblot. Expression of histone H3 and 3-actin was used as a loading control.
A general note: Immunoblotting shows a protein as a band on a membrane.

The subject of series [8] is tumors formed by CARM1 knockout A1847 cells. The series can be described thus: Subcutaneous xenograft model, CARM1 knockout A1847 cells. Type of series: in vivo, NSG mice. Conditions: 50 mg/kg daily i.p. Here is the method:
The protocols were approved by the Institutional Animal Care and Use Committee (IACUC). 5×10^6 control A1847 or A1847 CARM1 knockout cells were unilaterally injected subcutaneously into 6-8-week old female immunocompromised NSG mice (n=5 per group). One week after injection the mice were randomized and treated with vehicle control (20% captisol) or GSK126 (50 mg/kg daily). Tumor size was measured every 3 days for 3 weeks. At end of the experiments, tumors were surgically dissected and tumor burden was calculated based on tumor weight.
EZH2 inhibitors, such as GSK126, are used safely in clinical trials for hematopoietic malignancies (Ribrag et al. Eur J Cancer (2014) 50:197). To determine the effects of EZH2 inhibition in vivo on the growth of CARM1-expressing ovarian tumors, two xenograft models were utilized. In the subcutaneous xenograft models, the injected CARM1-expressing A1847 cells were first allowed to grow for one week to establish the tumors. Mice were then randomized and treated daily with vehicle control or GSK126 (50 mg/kg) by intraperitioneal (i.p.) injection as reported (see, e.g., Bitler et al. Nature Medicine (2015) 21:231-8 and McCabe et al. Nature (2012) 492:108-12). […] To more closely mimic the tumor microenvironment, A1847 cells were orthotopically transplanted into the bursa covering the ovary of immunocompromised NSG mice. […]

The text below walks through data of patent US12036222B2, “Methods of treating cancers overexpressing CARM1 with EZH2 inhibitors and a PARP inhibitor” (The Wistar Institut of Anatomy and Biology, priority 2018, dated 2024).

Entries after “also recorded” stand apart in the source; their conditions may differ.

T1 sequence (Q15910 whole entry): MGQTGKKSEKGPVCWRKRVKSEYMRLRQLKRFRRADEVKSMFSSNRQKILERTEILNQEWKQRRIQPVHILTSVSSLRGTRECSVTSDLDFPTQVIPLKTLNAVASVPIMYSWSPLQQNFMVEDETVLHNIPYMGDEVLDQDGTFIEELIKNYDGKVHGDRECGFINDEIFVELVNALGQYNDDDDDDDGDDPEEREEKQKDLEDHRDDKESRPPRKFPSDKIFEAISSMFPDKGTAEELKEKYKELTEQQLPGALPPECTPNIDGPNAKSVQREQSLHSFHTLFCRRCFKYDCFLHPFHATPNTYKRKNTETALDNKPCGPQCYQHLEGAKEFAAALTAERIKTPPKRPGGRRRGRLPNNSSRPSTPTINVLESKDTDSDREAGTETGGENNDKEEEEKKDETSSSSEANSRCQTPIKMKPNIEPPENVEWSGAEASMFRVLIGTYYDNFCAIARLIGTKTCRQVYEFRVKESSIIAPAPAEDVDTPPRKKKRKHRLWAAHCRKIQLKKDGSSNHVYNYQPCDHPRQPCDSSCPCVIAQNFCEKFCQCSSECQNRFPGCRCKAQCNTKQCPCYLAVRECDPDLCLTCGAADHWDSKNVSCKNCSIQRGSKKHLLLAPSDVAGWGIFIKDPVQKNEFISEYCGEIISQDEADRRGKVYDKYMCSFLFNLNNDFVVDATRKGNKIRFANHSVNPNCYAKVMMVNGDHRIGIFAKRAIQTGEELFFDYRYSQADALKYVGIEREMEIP
T1 sequence (Q15022 whole entry partner): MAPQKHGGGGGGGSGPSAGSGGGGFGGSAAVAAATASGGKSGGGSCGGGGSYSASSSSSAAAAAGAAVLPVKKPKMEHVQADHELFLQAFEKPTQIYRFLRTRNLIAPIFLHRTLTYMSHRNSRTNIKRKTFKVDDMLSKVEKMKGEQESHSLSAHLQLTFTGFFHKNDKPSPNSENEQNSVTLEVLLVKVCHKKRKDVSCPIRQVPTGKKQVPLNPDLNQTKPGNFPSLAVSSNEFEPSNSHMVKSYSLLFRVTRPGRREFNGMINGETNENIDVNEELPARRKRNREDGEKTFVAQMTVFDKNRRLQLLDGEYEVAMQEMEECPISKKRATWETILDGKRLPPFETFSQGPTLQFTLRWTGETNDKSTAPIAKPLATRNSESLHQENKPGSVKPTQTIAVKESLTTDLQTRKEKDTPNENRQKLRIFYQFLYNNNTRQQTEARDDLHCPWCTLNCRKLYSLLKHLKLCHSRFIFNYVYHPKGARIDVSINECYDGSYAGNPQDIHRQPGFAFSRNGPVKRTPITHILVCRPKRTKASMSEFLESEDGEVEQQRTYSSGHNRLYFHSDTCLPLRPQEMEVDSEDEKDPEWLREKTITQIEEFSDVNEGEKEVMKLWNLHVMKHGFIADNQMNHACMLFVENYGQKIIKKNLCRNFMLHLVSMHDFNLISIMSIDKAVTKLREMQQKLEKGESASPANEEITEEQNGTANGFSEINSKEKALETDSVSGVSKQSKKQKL
T1 sequence (O75530 whole entry partner): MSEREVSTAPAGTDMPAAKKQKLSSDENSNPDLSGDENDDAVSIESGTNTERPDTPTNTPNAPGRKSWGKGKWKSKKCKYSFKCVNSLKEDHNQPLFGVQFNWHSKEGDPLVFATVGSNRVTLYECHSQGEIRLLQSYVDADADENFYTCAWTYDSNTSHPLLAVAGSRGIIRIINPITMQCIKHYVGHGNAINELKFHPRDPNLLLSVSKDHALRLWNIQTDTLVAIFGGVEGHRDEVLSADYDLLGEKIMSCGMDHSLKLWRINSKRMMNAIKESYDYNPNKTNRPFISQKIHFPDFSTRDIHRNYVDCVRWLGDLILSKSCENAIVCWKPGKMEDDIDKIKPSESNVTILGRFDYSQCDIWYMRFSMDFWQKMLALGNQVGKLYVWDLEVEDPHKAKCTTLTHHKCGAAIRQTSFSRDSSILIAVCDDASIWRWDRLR

As for `CC[C@H](C)n1cc(C)c2c(C(=O)NCc3c(C)cc(C)[nH]c3=O)cc(-c3ccc(N4CCNCC4)nc3)cc21` [GSK126, (S)-1-(sec-butyl)-N-((4,6-dimethyl-2-oxo-1,2-dihydropyridin-3-yl)methyl)-3-methyl-6-(6-(piperazin-1-yl)pyridin-3-yl)-1H-indole-4-carboxamide], the “growth of CARM1-expressing tumors” value in series [1] (50 mg/kg daily i.p., three weeks) is on record as “significantly inhibited”. Further, the “survival of tumor bearing mice” value in series [1] (followed after stopping treatment, vs controls) is listed as “significantly improved the survival”. The “expression of NHEJ genes” value in series [2] is “restores the expression of NHEJ genes”. Also, in series [3], the “safety in clinical trials” value is “used safely; also recorded: proven safe; also recorded: well-tolerated with limited toxicity”. For the same molecule, in series [4] (IHC), the H3K27Me3 entry was “reduction of H3K27Me3”, the “expression of Ki67” value is recorded as “did not affect the expression” and the “expression of cleaved caspase 3” value is “did not affect the expression”. In addition, the “expression of CARM1 regulated EZH2/BAF155 target genes” value in series [4] (qRT-PCR) is “did not increase the expression”. For the same molecule, in series [5], the BAF155Me levels result was “did not affect BAF155Me levels”. For the same molecule, in series [6] (IHC), the EZH2 staining result is reported as “did not affect EZH2 staining”, the H3K27Me3 staining entry is “decreased”, the “expression of Ki67” value was “decreased the expression of Ki67” and the “expression of cleaved caspase 3” value was “increased the expression of cleaved caspase 3”. In series [6] (qRT-PCR), the “expression of EZH2/BAF155 target genes DAB2, DLC1 and NOXA in vivo” value is reported as “upregulation”. In series [7], the EZH2 protein levels entry is “did not affect EZH2 protein levels”, the “expression of CARM1” value is “did not affect the expression of CARM1” and the “inhibition of the enzymatic activity of EZH2 as indicated by the decrease in H3K27Me3 levels” value was above 95%. The H3K27Me3 levels result in series [7] (indicated concentrations) is reported as “dose-dependent decrease in H3K27Me3 levels”. For the same molecule, the “growth of tumors formed by CARM1 knockout A1847 cells” value in series [8] is “failed to inhibit the growth”.
